From patent US8084479B2, “Thiazole compounds and methods of use” (Amgen Inc., priority 2006, dated 2011)

Molecular target: PKBα (Homo sapiens, UniProt P31749)
Assay: PKB kinase assay (P33-labeled ATP, peptide substrate, filter plate)
Type: biochemical
Settings: PKBα enzyme (full length or kinase domain with pleckstrin domain deleted)
Excerpt: The kinase assay for evaluating PKB activity comprises active PKB enzymes, a PKB specific substrate, and P^33-labeled ATP. […] The phosphorylated substrate was captured by a phosphocellulose membrane filter plate (MLLIPORE) and measured by a Wallac Microbeta liquid scintillation counter (Perkin Elmer).

Sequence of PKBα (P31749 118-480 limits assumed): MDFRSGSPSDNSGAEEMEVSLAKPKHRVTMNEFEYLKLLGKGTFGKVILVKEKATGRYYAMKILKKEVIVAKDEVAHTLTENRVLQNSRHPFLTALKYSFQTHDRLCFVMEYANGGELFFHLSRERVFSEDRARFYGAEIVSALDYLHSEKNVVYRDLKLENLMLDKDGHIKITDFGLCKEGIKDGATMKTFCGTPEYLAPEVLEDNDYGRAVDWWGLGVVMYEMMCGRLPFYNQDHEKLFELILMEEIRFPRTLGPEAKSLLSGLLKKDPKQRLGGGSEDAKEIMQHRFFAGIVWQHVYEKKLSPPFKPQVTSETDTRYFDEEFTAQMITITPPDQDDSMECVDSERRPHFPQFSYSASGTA

Compound | IC50 [nM]
CC(O)C#Cc1nc(NC[C@@H](N)Cc2ccc(C(F)(F)F)cc2)sc1-c1ccc2c(c1)CC(=O)N2 (stereo partly drawn) [Example 144, 5-(2-((S)-2-amino-3-(4-(trifluoromethyl)phenyl)propylamino)-4-(3-hydroxybut-1-ynyl)thiazol-5-yl)indolin-2-one] | < 50
NC(CNc1ncc(-c2ccc3[nH]c(=O)oc3c2)s1)Cc1ccc(OC(F)(F)F)cc1 (centres unmarked) [Example 187, 6-(2-(-2-amino-3-(4-(trifluoromethoxy)phenyl)propylamino)thiazol-5-yl)benzo[d]oxazol-2(3H)-one] | 50 to 1000
Cc1n[nH]c2ccc(-c3sc(NC[C@@H](N)Cc4ccc(C(F)(F)F)cc4)nc3CO)cc12 [Example 11, (2-((S)-2-amino-3-(4-(trifluoromethyl)phenyl)propylamino)-5-(3-methyl-1H-indazol-5-yl)thiazol-4-yl)methanol] | < 50
N[C@H](CNc1ncc(-c2ccc3c(c2)CC(=O)N3)s1)Cc1ccc(C(F)(F)F)nc1 [Example 171, 5-(2-((S)-2-amino-3-(6-(trifluoromethyl)pyridine-3-yl)propylamino)thiazol-5-yl)indolin-2-one] | < 50
Cn1nc(N)c2ccc(-c3cnc(NC[C@@H](N)Cc4ccc(C(F)(F)F)cc4)s3)cc21 [Example 53, 6-(2-((S)-2-amino-3-(4-(trifluoromethyl)phenyl)propylamino)thiazol-5-yl)-1-methyl-1H-indazol-3-amine] | 1000 to 10000
N[C@H](CNc1ncc(-c2ccc3[nH]c(=O)oc3c2)s1)Cc1ccc(Cl)c(F)c1 [Example 84, 6-(2-((S)-2-Amino-3-(4-chloro-3-fluorophenyl)propylamino)thiazol-5-yl)benzo[d]oxazol-2(3H)-one] | < 50
N[C@H](CNc1ncc(-c2cc3oc(=O)[nH]c3cc2F)s1)Cc1ccc(C(F)(F)F)cc1 [Example 112, 6-(2-((S)-2-Amino-3-(4-(trifluoromethyl)phenyl)propylamino)thiazol-5-yl)-5-fluorobenzo[d]oxazol-2(3H)-one] | < 50
C[C@H](Nc1ncc(-c2ccc3[nH]c(=O)oc3c2)s1)[C@@H](N)Cc1ccc(C(F)(F)F)cc1 [Example 236, 6-(2-((2S,3S)-3-amino-4-(4-(trifluoromethyl)phenyl)butan-2-ylamino)thiazol-5-yl)benzo[d]oxazol-2(3H)-one] | 1000 to 10000
N[C@H](CNc1nc(C(F)(F)F)c(-c2ccc3cnccc3c2)s1)Cc1ccc(Cl)cc1 [Example 168] | 50 to 1000
N[C@H](CNc1nc(-c2ccc(F)cc2)c(-c2ccc3cnccc3c2)s1)Cc1ccc(C(F)(F)F)cc1 [Example 102, N—((S)-2-Amino-3-(4-(trifluoromethyl)phenyl)propyl)-4-(4-fluorophenyl)-5-(isoquinolin-6-yl)thiazol-2-amine] | 50 to 1000
NC(CNc1ncc(-c2ccc3[nH]ncc3c2)s1)Cc1ccc(C(F)(F)F)c(F)c1F (centres unmarked) [Example 190, N-(2-amino-3-(2,3-difluoro-4-(trifluoromethyl)phenyl)propyl)-5-(1H-indazol-5-yl)thiazol-2-amine] | < 50
COc1ccc(CC(N)CNc2ncc(-c3ccc4c(c3)CC(=O)N4)s2)cc1F (centres unmarked) [Example 130, 5-(2-(2-Amino-3-(3-fluoro-4-methoxyphenyl)propylamino)thiazol-5-yl)indolin-2-one] | 50 to 1000
Nc1noc2ccc(-c3cnc(NC[C@@H](N)Cc4ccc(C(F)(F)F)cc4)s3)cc12 [Example 51, 5-(2-((S)-2-amino-3-(4-(trifluoromethyl)phenyl)propylamino)thiazol-5-yl)benzo[d]isoxazol-3-amine] | 50 to 1000
COCc1nc(NC[C@@H](N)Cc2ccc(C(F)(F)F)cc2)sc1-c1ccc2[nH]c(=O)n(C)c2c1 [Example 58, 6-(2-((S)-2-amino-3-(4-(trifluoromethyl)phenyl)propylamino)-4-(methoxymethyl)thiazol-5-yl)-1-methyl-1H-benzo[d]imidazol-2(3H)-one] | 50 to 1000
N[C@H](CNc1ncc(-c2cc(F)c3c(c2)CC(=O)N3)s1)Cc1ccc(C(F)(F)F)nc1 [Example 221, 5-(2-((S)-2-amino-3-(6-(trifluoromethyl)pyridin-3-yl)propylamino)thiazol-5-yl)-7-fluoroindolin-2-one] | < 50
C[C@@H](c1ccc(C(F)(F)F)cc1)[C@H](N)CNc1ncc(-c2ccc3[nH]c(=O)n(C)c3c2)s1 [Example 93, 6-(2-((2S,3S)-2-amino-3-(4-(trifluoromethyl)phenyl)butylamino)thiazol-5-yl)-1-methyl-1H-benzo[d]imidazol-2(3H)-one] | 50 to 1000
Nc1noc2ccc(-c3cnc(NC[C@@H](N)Cc4c[nH]c5ccccc45)s3)cc12 [Example 38, 5-(2-((S)-2-amino-3-(1H-indol-3-yl)propylamino)thiazol-5-yl)benzo[d]isoxazol-3-amine] | 50 to 1000
N[C@H](CNc1ncc(-c2ccc3cncnc3c2)s1)Cc1ccc(C(F)(F)F)cc1 [Example 253, N—((S)-2-Amino-3-(4-(trifluoromethyl)phenyl)propyl)-5-(quinazolin-7-yl)thiazol-2-amine] | < 50
CC(C)(C)C(=O)OC[C@@H](c1ccc(C(F)(F)F)cc1)[C@H](N)CNc1ncc(-c2ccc3c(c2)CC(=O)N3)s1 [Example 242, (2S,3S)-3-amino-4-(5-(2-oxoindolin-5-yl)thiazol-2-ylamino)-2-(4-(trifluoromethyl)phenyl)butyl pivalate] | 50 to 1000
N[C@H](CNc1ncc(-c2ccc3cnccc3c2)s1)Cc1ccc(C(F)(F)F)c(O)c1 [Example 208, 5-((S)-2-amino-3-(5-(isoquinolin-6-yl)thiazol-2-ylamino)propyl)-2-(trifluoromethyl)phenol] | < 50
Cc1nc(NC[C@@H](N)Cc2ccccc2)sc1-c1ccc2[nH]nc(C)c2c1 [Example 7, N—((S)-2-amino-3-phenylpropyl)-4-methyl-5-(3-methyl-1H-indazol-5-yl)thiazol-2-amine] | 1000 to 10000
N[C@H](CNc1ncc(-c2cnc3c(c2)CC(=O)N3)s1)Cc1ccc(C(F)(F)F)nc1 [Example 227, 5-(2-((S)-2-amino-3-(6-(trifluoromethyl)pyridin-3-yl)propylamino)thiazol-5-yl)-1H-pyrrolo[2,3-b]pyridin-2(3H)-one] | 50 to 1000
Cc1n[nH]c2ccc(-c3sc(NC[C@@H](N)Cc4ccc(C(F)(F)F)cc4)nc3C#CCO)cc12 [Example 149, 3-(2-((S)-2-amino-3-(4-(trifluoromethyl)phenyl)propylamino)-5-(3-methyl-1H-indazol-5-yl)thiazol-4-yl)prop-2-yn-1-ol] | < 50
NC(CNc1ncc(-c2ccc3cnccc3c2)s1)Cc1ccc(O)c(F)c1 (centres unmarked) [Example 218, 4-(2-Amino-3-(5-(isoquinolin-6-yl)thiazol-2-ylamino)propyl)-2-fluorophenol] | < 50
Cn1c(=O)[nH]c2ccc(-c3cnc(NC[C@@H](N)Cc4ccc(Cl)c(F)c4)s3)cc21 [Example 87, 6-(2-((S)-2-Amino-3-(4-chloro-3-fluorophenyl)propylamino)thiazol-5-yl)-1-methyl-1H-benzo[d]imidazol-2(3H)-one] | < 50
N[C@H](CNc1ncc(-c2ccc3nnccc3c2)s1)Cc1ccc(C(F)(F)F)cc1 [Example 254, N—((S)-2-amino-3-(4-(trifluoromethyl)phenyl)propyl)-5-(cinnolin-6-yl)thiazol-2-amine] | 50 to 1000
